Active and inactive are the calls of the source. How the calls were made is not given here.
What was measured:
[1] = Stage specific vaccinia inhibitors, dry powder dose response, infected cell reporter fluorescence (AID 1053168); details: Vaccinia-infected cells, mCherry/Venus stage reporter fluorescence; at 21 µM (top of the series)
[2] = tested on: Vaccinia-infected cells, mCherry/Venus stage reporter fluorescence; assay: as above
[3] = measured here: mCherry reporter AC50
[4] = measured here: Venus reporter AC50

| Structure (SMILES) | activity change, negative = inhibition [1] | AC50 [2, 3] | AC50 [2, 4] |
| --- | --- | --- | --- |
| C[C@H](CO)N1C[C@H](C)[C@@H](CN(C)Cc2ccc(-c3ccccc3)cc2)Oc2cc(C#C[C@@H](C)O)ccc2S1(=O)=O | -19.5% (inactive) | > 42 µM | – |
| CCOC(=O)[C@@H]1[C@@H]2C=C[C@]3(O2)[C@H](C(=O)NCc2ccccc2)N(CCCCCCO)C(=O)[C@@H]13 | -18.7% (inactive) | > 42 µM | > 42 µM |
| C[C@H](O)C#Cc1ccc2c(c1)O[C@H](CN(C)Cc1ccc(-c3ccccc3)cc1)[C@H](C)CN([C@@H](C)CO)S2(=O)=O | -17.3% (inactive) | > 42 µM | > 42 µM |
| C[C@H](O)C#Cc1ccc2c(c1)O[C@@H](CN(C)Cc1ccc(-c3ccccc3)cc1)[C@H](C)CN([C@H](C)CO)S2(=O)=O | -20.1% (inactive) | > 42 µM | – |
| OC[C@H]1Nc2ccc(-c3cccc(F)c3)cc2[C@H]2[C@@H]1CCN2Cc1ccc(F)cc1 | -30.8% (inactive) | > 42 µM | – |
| C[C@H](O)C#Cc1ccc2c(c1)O[C@@H](CN(C)Cc1ccc(-c3ccccc3)cc1)[C@@H](C)CN([C@@H](C)CO)S2(=O)=O | -12.2% (inactive) | > 42 µM | > 42 µM |
| C[C@H](CO)N1C[C@H](C)[C@H](CN(C)Cc2ccc(-c3ccccc3)cc2)Oc2cc(C#C[C@@H](C)O)ccc2S1(=O)=O | -20% (inactive) | > 42 µM | > 42 µM |
| COc1ccccc1CN1CC[C@@H]2[C@@H](CO)Nc3ccc(-c4ccc(C(=O)N(C)C)cc4)cc3[C@@H]21 | -12.1% (inactive) | > 42 µM | > 42 µM |
| C[C@H](O)C#Cc1ccc2c(c1)O[C@H](CN(C)Cc1ccccc1)[C@@H](C)CN([C@@H](C)CO)S2(=O)=O | -24.7% (inactive) | > 42 µM | > 42 µM |
| CN1c2ccc(-c3ccc(C#N)cc3)cc2[C@@H]2[C@@H](CCN2C(=O)C2CCCCC2)[C@H]1CO | -26% (inactive) | – | > 42 µM |
| C[C@@H]1CN([C@@H](C)CO)S(=O)(=O)c2ccc(C#C[C@@H](C)O)cc2O[C@@H]1CN(C)Cc1ccccc1 | -27% (inactive) | – | > 42 µM |
| N#Cc1ccc(-c2ccc3c(c2)[C@@H]2[C@@H](CCN2C(=O)C2CCCCC2)[C@@H](CO)N3)cc1 | -10.8% (inactive) | – | > 42 µM |
| C[C@H](O)C#Cc1ccc2c(c1)O[C@H](CN(C)Cc1ccccc1)[C@@H](C)CN([C@H](C)CO)S2(=O)=O | -3.87% (inactive) | > 42 µM | – |
| C[C@H](O)C#Cc1ccc2c(c1)O[C@@H](CN(C)Cc1ccccc1)[C@H](C)CN([C@H](C)CO)S2(=O)=O | -12.7% (inactive) | > 42 µM | > 42 µM |
